# Marks after values point to notes of the source that are not given here.
# How the values were obtained:
# [1] = Chemical stability of lipids in ethanol (lipid purity); type: physicochemical
# Protocol: Ester linkages were previously reported to trigger metabolism by esterases in vivo. (See Fukami, T. et al. Drug Metab. Pharmacokinet. 2012, 27, 466-477, the content of which is incorporated by reference herein in its entirety). […] (See Maier M. A., Mol. Ther. 2013, 21, 1570-1578, the content of which is incorporated herein in its entirety) First, the chemical stability of the lipids was evaluated by measuring ethanol stability at room temperature and 37° C. (Table 39). […] LNPs formed with compound 138 were larger, with a surface pKa>7. […] Removal of one ester function (compound 136) afforded LNPs with improved physiochemical characteristics and lower LNP surface pKa.
# [2] = Lipid clearance: lipid level in mouse liver tissue (LC-MS/MS); type: in vivo; details: for % dose remaining Mouse liver tissue, 24 h: CD-1 mouse liver 24 h after 0.5 mg/kg bolus dose mRNA, n = 5 ± S.D.; for original dose remaining in liver tissue 24 hours post dose: mice, intravenous
# Protocol: Quantification of Lipid by LC-MS/MS: Liver samples were homogenized following addition of 19 eq. (w/v) of water (DF=20). Protein was precipitated and analyzed against calibration standards prepared in matching blank. Chromatographic separation and quantification was accomplished with a LC-MS/MS System. Samples were injected and separated via HPLC A triple-quadrupole MS/MS system operated in positive ion mode was used for signal detection.
# [3] = tested on: sC5b-9; assay: Complement activation in vitro (sC5b-9 levels); type: cell-based; details: human cells contacted in vitro; for sC5b-9 levels relative to saline: in words
# Protocol: Complement activation assists in the clearance of pathogens from an organism. As it is undesirable that a subject's body recognize a nanoparticle composition as a foreign invader, low complement system activation upon administration of such a composition is preferred. The complex sC5b-9 is a marker for the activation of the complement system. Thus, human cells were contacted in vitro with nanoparticle compositions according to Table 1A and were evaluated for sC5b-9 levels.
# [4] = tested on: hEPO mRNA; assay: hEPO expression after intravenous administration to rats; type: in vivo, rat; details: for Lipid/MC3 hEPO expression: 6 hours after administration; for hEPO expression: rat; for Lipid/MC3 hEPO conc. ratio 0.2 mpk / Lipid/MC3 hEPO conc. ratio 2 mpk: rats
# How it was run: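 Rats dosed intravenously once with nanoparticle composition, 0.2 or 2.0 mpk, formulated by the standard MC3 method. Tail-vein blood sampled at 6 h or at time points from 0.25 to 48 h. hEPO measured by ELISA.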
# [5] = Residual lipid levels in rat liver and spleen (UPLC-MS); type: in vivo; details: for % Lipid Remaining in liver, 48 h: 2 mpk, assuming 300 g rat and 15 g liver
# How it was run: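 Rats received a single intravenous dose of lipid nanoparticle composition, and liver tissue was later collected to quantify residual lipid. Weighed tissue was homogenized in Milli-Q water (900 μL per 100 mg tissue) using an Omni probe homogenizer. 50 μL aliquots were mixed with 400 μL spiking solution, vortexed, centrifuged, and analyzed by UPLC on a C8 column with positive-mode ESI detection on a Sciex API5500 mass spectrometer.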
# [6] = tested on: hEPO mRNA; assay: hEPO expression after subcutaneous administration to mice; type: in vivo, female CD-1 mice; details: relative to MC3
# Protocol: The effect of the lipids of the disclosure on protein expression upon subcutaneous administration was studied. Formulations containing lipids of the disclosure and an mRNA expressing luciferase or hEPO were administered subcutaneously to female CD-1 mice at 0.5 mpk. Expression levels were obtained via whole body luminescent imaging (BLI) at 3, 6 and 24 hours after injection and expression levels in liver, spleen and at the injection site were evaluated ex vivo after 24 hours. […] See also Tables 35 and 36, and FIGS. 19 and 27.
# Table 36 summarizes the hEPO expression levels using various nanoparticle compositions of the disclosure as compared to the hEPO expression level using a formulation containing MC3 or Compound 18, following subcutaneous administration, as described above.
# [7] = tested on: IP-10; assay: Cytokine induction in rats after intravenous administration; type: in vivo, rat; details: for IP-10 induction: rat, 48 hours after administration
# Protocol: The expression of hEPO and cytokine induction in rats intravenously administered a nanoparticle composition at a dose of 2.0 mpk was measured at 6 h.
# Table 19A summarizes the hEPO expression, IP-10 induction, liver and spleen levels, and alanine aminotransferase (ALT) and aspartate aminotransferase (AST) measured upon intravenous administration of formulations including Compounds 48, 49, and 50 to rat at 0.2 and 2 mpk and hEPO mRNA. hEPO concentrations were measured 6 hours after administration, while cytokine induction and liver and spleen levels were measured 48 hours after administration. hEPO and IP-10 concentrations are presented in pg/ml, while liver levels are provided in ng/g. ALT and AST levels are presented in international units.
SMILES,Lipid Purity ([1]; t = 0),"Lipid Purity ([1]; t = 96 h, 25° C.)","Lipid Purity ([1]; t = 96 h, 37° C.)","% dose remaining Mouse liver tissue, 24 h [2]",Fold increase in sC5b-9 levels versus saline [3],"Novel lipid/MC3 expression ratio, 6 hr. time point, s.c. hEPO 0.5 mpk [6]","Lipid/MC3 hEPO conc. ratio 2 mpk ([4]; intravenous, 2 mpk, 6 hours)","% Lipid Remaining in liver, 48 h ([5]; rats, 48 h)",also measured
"CCCCCCCCC(CCCCCCCC)OC(=O)CCCCCCCN(CCO)CCCCCCCC(=O)OC(CCCCCCCC)CCCCCCCC [Compound 29, Di(heptadecan-9-yl) 8,8′-((2-hydroxyethyl)azanediyl)dioctanoate]",97.017%,97.67%,98.10%,68 ± 9.2%,0.93,–,–,–,original dose remaining in liver tissue 24 hours post dose [2]: 68%; sC5b-9 levels relative to saline [3]: slightly decrease
"CCCCCCCCCOC(=O)CCCCCCCN(CCO)CCCCCCCCCC(=O)OC(CCCCCC)CCCCCC [Compound 147, Tridecan-7-yl 10-((2-hydroxyethyl)(8-(nonyloxy)-8-oxooctyl)amino)decanoate]",–,–,–,–,–,–,–,–,"AUC (hEPO) ([4]; Table 19B): 7.28e+07 pg·h/mL; Lipid/MC3 ([hEPO] ratio) ([4]; Table 19B, relative to MC3): 3.69; Lipid/MC3 AUC ([4]; Table 19B, relative to MC3): 3.94; [hEPO] ([4]; Table 19B, species, dose and time not given): 5.45e+06 pg/mL; % dose remaining, liver, 24 h ([5]; Table 19B, liver, 24 h): 0.00%"
"CCCC/C=C\CCC(CC/C=C\CCCC)OC(=O)CCCCCCCN(CCO)CCCCCCCC(=O)OCCCCCCCCC [Compound 60, (5Z,12Z)-Heptadeca-5,12-dien-9-yl 8-((2-hydroxyethyl)(8-(nonyloxy)-8-oxooctyl)amino)octanoate]",–,–,–,–,–,6.59,–,–,–
"CCCCCCCCC(C)OC(=O)CCCCCCCN(CCO)CCCCCCCC(=O)OC(CCCCCCCC)CCCCCCCC (stereo not shown) [Compound 48, decan-2-yl 8-((8-(heptadecan-9-yloxy)-8-oxooctyl)(2-hydroxyethyl)amino)octanoate]",–,–,–,–,–,8.09,3.84,7.22%,"IP-10 induction ([7]; 0.2 mpk): 134 pg/mL; IP-10 induction ([7]; 2 mpk): 970 pg/mL; Lipid/MC3 hEPO expression ([4]; 0.2 mpk dose to rat): 5.39; Lipid/MC3 hEPO expression ([4]; 2 mpk dose to rat): 3.84; hEPO expression ([4]; intravenous, 0.2 mpk, 6 hours): 4.06e+06 pg/mL; hEPO expression ([4]; intravenous, 2 mpk, 6 hours): 3.57e+07 pg/mL; Lipid/MC3 hEPO conc. ratio 0.2 mpk ([4]; intravenous, 0.2 mpk, 6 hours): 5.39; % lipid remaining in liver after 48 hours ([5]; liver): 11.4%"
"CCCCCCCCCOC(=O)CCCCCCCN(CCO)CCCCCCCC(=O)OCCCCCCCCC [Compound 138, Dinonyl 8,8′-((2-hydroxyethyl)azanediyl)dioctanoate]",97.59%,98.64%,97.82%,0%,–,–,–,–,original dose remaining in liver tissue 24 hours post dose [2]: no lipid detected
"CCCCCCCCCN(CCO)CCCCCCCC(=O)OC(CCCCCCCC)CCCCCCCC [Compound 3, Heptadecan-9-yl 8-((2-hydroxyethyl)(nonyl)amino)octanoate]",–,–,–,–,–,–,1.21,14%,"IP-10 ([7]; rats, 2.0 mpk, 6 hours, hEPO nanoparticle compositions): 542 pg/mL; hEPO expression ([4]; 6 h, 2 mpk, i.v.): 1.74e+07 pg/mL; Lipid/MC3 hEPO conc. ratio 0.2 mpk ([4]; intravenous, 0.2 mpk, 6 hours): 2.41; % remaining dose in liver, 48 h ([5]; rats, intravenous, 2.0 mpk, 48 h): 14.2%"
"CCCCCCCCCOC(=O)CCCCCCCN(CCCCCCCC(=O)OC(CCCCCCCC)CCCCCCCC)CCCNC(=S)N(C)C [Compound 111, Heptadecan-9-yl 8-((3-(3,3-dimethylthioureido)propyl)(8-(nonyloxy)-8-oxooctyl)amino)octanoate]",–,–,–,–,–,6.40,–,–,–
"CCCCCCCCC(CCC)OC(=O)CCCCCCCN(CCO)CCCCCCCC(=O)OC(CCCCCCCC)CCCCCCCC (stereo not shown) [Compound 50, dodecan-4-yl 8-((8-(heptadecan-9-yloxy)-8-oxooctyl)(2-hydroxyethyl)amino)octanoate]",–,–,–,–,–,–,3.03,15.9%,"IP-10 induction ([7]; 0.2 mpk): 20 pg/mL; IP-10 induction ([7]; 2 mpk): 1065 pg/mL; hEPO expression ([4]; intravenous, 0.2 mpk, 6 hours): 2.62e+06 pg/mL; hEPO expression ([4]; intravenous, 2 mpk, 6 hours): 2.81e+07 pg/mL; Lipid/MC3 hEPO conc. ratio 0.2 mpk ([4]; intravenous, 0.2 mpk, 6 hours): 3.41"
"CCCCC/C=C\C/C=C\CCCCCCCCN(CCO)CCCCCCCC(=O)OCCCCCCCCC [Compound 136, Nonyl 8-((2-hydroxyethyl)((9Z,12Z)-octadeca-9,12-dien-1-yl)amino)octanoate]",91.81%,93.17%,93.86%,0%,0.69,–,–,–,–
"CCCCCCCCCOC(=O)CCCCCCCN(CCCCCCCC(=O)OC(CCCCCCCC)CCCCCCCC)CCCNS(C)(=O)=O [Compound 109, Heptadecan-9-yl 8-((3-(methylsulfonamido)propyl)(8-(nonyloxy)-8-oxooctyl)amino)octanoate]",–,–,–,–,–,6.78,–,–,–
"CCCCCCCC/C=C\COC(=O)CCCCCN(CCO)CCCCCC(=O)OC/C=C\CCCCCCCC [Compound 140, Di((Z)-undec-2-en-1-yl) 6,6′-((2-hydroxyethyl)azanediyl)dihexanoate]",–,–,–,–,0.75,–,–,–,–
"CCCCC/C=C\C/C=C\CCCCCCCCN(CCO)CCCCCCCC(=O)OC(CCCCCCCC)CCCCCCCC [Compound 6, Heptadecan-9-yl 8-((2-hydroxyethyl)((9Z,12Z)-octadeca-9,12-dien-1-yl)amino)octanoate]",93.80%,93.21%,94.29%,67 ± 9.8%,1.39,–,–,–,original dose remaining in liver tissue 24 hours post dose [2]: 67%; sC5b-9 levels relative to saline [3]: somewhat increase
"CCCCCCCCCOC(=O)CCCN(CCO)CCCCCCCC(=O)OC(CCCCCCCC)CCCCCCCC [Compound 26, Heptadecan-9-yl 8-((2-hydroxyethyl)(4-(nonyloxy)-4-oxobutyl)amino) octanoate]",98.64%,97.38%,95.72%,–,–,–,4.95,20%,"Lipid/MC3 hEPO expression ([4]; 2 mpk dose to rat): 4.95; % dose remaining Rat liver tissue, 48 h ([5]; Sprague Dawley rat liver 48 h after 2 mg/kg bolus dose mRNA): 20 ± 4.0^f %; parent amino lipid levels in the liver ([5]; Sprague Dawley rats, 48 h post dose): 20%; % lipid remaining in liver after 48 hours ([5]; liver): 20%; lipid levels in the liver after 48 hours ([5]; rats, i.v., dose response study): about 19%"

# — US12263248B2, “Compounds and compositions for intracellular delivery of therapeutic agents” (ModernaTX, Inc., priority 2018, dated 2025)
